From US20240317762A1, “PHTHALAZINONE-BASED PARP-1 INHIBITORS” (Oregon Health & Science University, priority 2021, published 2024)

Tests used:
HEK 293T cells = assay: DNA synthesis assay (EdU incorporation); format: cell-based, human; conditions: 1 μM, 18 hours, then 10 μM EdU 1.5 hours
Description: HEK 293T cells were seeded onto poly-d-lysine treated glass coverslips. […] After incubation, cells were treated with 10 μM EdU (5-ethynyl-2′-deoxyuridine) for 1.5 hours and subsequently fixed with 4% Sucrose/4% Paraformaldehyde in PBS for 15 minutes at RT. Cells were washed 2× with 3% BSA in PBS and permeabilized with 0.3% Triton X-100 in PBS for 20 minutes at RT. After two additional 3% BSA in PBS washes, coverslips were incubated with 500 μl Click-iT reaction cocktail [1× Click-iT reaction buffer, 2 mM CuSO4, 5 μM TAMRA Azide, Reaction buffer additive] for 30 minutes at room temperature (RT) protected from the light. Cells were washed once more with 3% BSA in PBS and twice more with 1×PBS before being mounted using ProLong Gold antifade reagent with DAPI (Invitrogen). All immunofluorescence images were taken on a Zeiss ApoTome2 on Axiolmager and analyzed using Zeiss software. Mean intensity of the TAMRA signal was measured after imposing DAPI masks over the nucleus of each cell. All cells within a 20× image, was analyzed (˜3000 cells/condition).
(§1) Error bars represent SEM. […] Error bars represent SEM. […] Error bars represent SEM.

[1] = tested on: caspase-3/7 activity in HEK 293 cells; assay: cell apoptosis assay (Caspase-Glo 3/7); format: cell-based, human; conditions: 1 μM, 72 hours
Description: HEK 293 or HEK 293 PARP-1 KO cells were seeded in a 96 well plate at 1000-2000 cells per well, a media only “blank” was also included. Following an overnight incubation, cells were treated with 1 μM of indicated inhibitors. “Blank” wells were treated with DMSO. Following a 72 hour inhibitor treatment, the Caspase-Glo 3/7 Assay was completed following the manufacturer instructions (Promega, #G8091). Luminescence was read on a SpectraMax i3 plate reader (Molecular Devices).
as §1

D770A PARP-1 = D770A PARP-1 (Homo sapiens, UniProt P09874, D770A); assay: fluorescence polarization DNA competition and affinity assays, D770A mutant; format: binding
Chain of D770A PARP-1 (P09874 whole entry D770A, the tested form may be a part): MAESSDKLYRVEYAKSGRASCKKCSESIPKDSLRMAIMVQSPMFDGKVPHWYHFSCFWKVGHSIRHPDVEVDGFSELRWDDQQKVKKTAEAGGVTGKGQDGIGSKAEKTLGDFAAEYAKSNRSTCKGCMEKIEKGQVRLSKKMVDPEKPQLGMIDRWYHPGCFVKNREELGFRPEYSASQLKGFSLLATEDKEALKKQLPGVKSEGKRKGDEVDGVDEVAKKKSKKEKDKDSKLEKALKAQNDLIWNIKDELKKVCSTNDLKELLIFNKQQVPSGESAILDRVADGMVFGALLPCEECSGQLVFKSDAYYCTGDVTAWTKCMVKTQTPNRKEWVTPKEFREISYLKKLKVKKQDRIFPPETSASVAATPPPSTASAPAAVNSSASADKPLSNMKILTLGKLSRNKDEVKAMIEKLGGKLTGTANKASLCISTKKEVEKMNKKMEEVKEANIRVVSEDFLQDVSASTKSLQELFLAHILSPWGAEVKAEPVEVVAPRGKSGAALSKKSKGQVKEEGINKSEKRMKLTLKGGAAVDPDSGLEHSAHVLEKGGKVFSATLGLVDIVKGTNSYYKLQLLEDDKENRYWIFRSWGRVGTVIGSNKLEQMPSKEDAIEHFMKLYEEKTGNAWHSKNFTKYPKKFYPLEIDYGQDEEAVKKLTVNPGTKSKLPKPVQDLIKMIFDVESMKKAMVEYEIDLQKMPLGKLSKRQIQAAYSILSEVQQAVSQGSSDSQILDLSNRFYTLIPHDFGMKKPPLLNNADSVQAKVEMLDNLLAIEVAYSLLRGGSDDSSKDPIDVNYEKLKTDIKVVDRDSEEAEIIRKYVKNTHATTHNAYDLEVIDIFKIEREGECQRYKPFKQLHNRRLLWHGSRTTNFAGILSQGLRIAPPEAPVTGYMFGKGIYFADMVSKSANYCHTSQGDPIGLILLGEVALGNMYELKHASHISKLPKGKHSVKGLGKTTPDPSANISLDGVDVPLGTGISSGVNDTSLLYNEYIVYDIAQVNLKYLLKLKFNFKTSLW
Description: FIG. 4B) Helical domain (pink cartoon) movement observed during the simulation, the red arrows indicate length and direction of movement. FIG. 4C) The residue-residue distance observed between the Ca atoms R878-D770 and Y889-V758, the increased distance sampling corresponds to the helical domain movement. FIG. 4D) PARP-1 WT, D770A, or R878A (40 nM) was incubated with a dumbbell DNA probe carrying an internal FAM group and a central nick at 20 nM with or without compound (25 μM) for 30 minutes. An unlabeled competitor was added and the decrease in fluorescence polarization was measured across time. FIG. 4E) The Kd of PARP-1 WT, D770A, or R878A for a DNA dumbbell probe containing a central nick (5 nM) was measured in a fluorescence polarization assay with and without inhibitor (5 μM). Error bars represent Standard Error of the Mean (SEM) (n=3).

D770A PARP-1's affinity for DNA (D770A PARP-1; 5 μM inhibitor): nor did it change
exchange of the D770A PARP-1:labled DNA with unlabeled DNA (D770A PARP-1; 25 μM compound): did not impact
Substance: (S)-4-(difluoro(3-(6-methyl-3-(trifluoromethyl)-5,6,7,8-tetrahydro-[1,2,4]triazolo[4,3-a]pyrazine-7-carbonyl)phenyl)methyl)phthalazin-1(2H)-one [AZ0108]
block of EdU incorporation (HEK 293T cells): 65%
reduction of caspase-3/7 activity [1]: 75%
